30 compounds from patent US20100168102A9, “Amide Derivatives as Kinase Inhibitors” (Devgen NV, priority 2005, published 2010) can be followed below.

SMILES strings stand for the structures.

Assay [1] has as its target T1, human ROCKα/ROCKII mix (Homo sapiens, UniProt O75116).
T1 construct: purchased Upstate Biotechnology 14-451
Kind of assay: Biochemical assay for ROCK (fluorescence polarization, ROCK IMAP Kit). Conditions: compounds of Formula XIV, Table 3.

The target of assay [2] is T2, PKC epsilon (Homo sapiens, UniProt Q02156).
T2 construct: purchased Invitrogen P2282
T2 sequence (Q02156 1-737): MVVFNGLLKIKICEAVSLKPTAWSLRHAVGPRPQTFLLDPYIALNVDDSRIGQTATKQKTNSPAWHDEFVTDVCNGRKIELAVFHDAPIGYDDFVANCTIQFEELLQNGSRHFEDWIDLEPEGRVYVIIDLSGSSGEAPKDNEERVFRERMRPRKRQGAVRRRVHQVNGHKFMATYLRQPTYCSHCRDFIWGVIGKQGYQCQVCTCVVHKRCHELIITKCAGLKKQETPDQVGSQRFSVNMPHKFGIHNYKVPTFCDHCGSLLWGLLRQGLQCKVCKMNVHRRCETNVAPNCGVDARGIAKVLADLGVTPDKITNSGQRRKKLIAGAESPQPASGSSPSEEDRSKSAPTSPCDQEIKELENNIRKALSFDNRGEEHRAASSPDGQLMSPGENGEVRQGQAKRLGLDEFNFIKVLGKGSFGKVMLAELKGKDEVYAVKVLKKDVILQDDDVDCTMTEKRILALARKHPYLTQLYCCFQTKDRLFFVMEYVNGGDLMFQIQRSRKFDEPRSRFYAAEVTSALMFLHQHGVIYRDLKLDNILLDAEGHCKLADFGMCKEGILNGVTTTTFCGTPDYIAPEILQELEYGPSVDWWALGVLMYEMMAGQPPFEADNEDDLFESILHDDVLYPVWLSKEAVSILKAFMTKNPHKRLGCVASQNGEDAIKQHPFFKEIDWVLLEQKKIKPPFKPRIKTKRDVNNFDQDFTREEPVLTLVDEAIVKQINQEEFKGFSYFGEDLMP
Kind of assay: Biochemical assay for PKC epsilon (fluorescence polarization, Protein Kinase C Assay Kit, Red). Conditions: compounds of Formula XIV, Table 3; read-out: IC50 μM PKCε. A digest of the protocol: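 Read-out was fluorescence-polarization competition between phosphorylated substrate and a rhodamine PKC tracer for an anti-phosphoserine antibody, added with EDTA stop after an 80 min room-temperature kinase reaction with ATP and protein substrate (Mg2+/Ca2+ buffer). Enzyme (10 ng/ml final) was preincubated with compound for 30 min.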
On the technique in general: Polarisation of emitted light reports the rotation of a fluorescent probe.

T1 sequence (O75116 11-552 limits assumed): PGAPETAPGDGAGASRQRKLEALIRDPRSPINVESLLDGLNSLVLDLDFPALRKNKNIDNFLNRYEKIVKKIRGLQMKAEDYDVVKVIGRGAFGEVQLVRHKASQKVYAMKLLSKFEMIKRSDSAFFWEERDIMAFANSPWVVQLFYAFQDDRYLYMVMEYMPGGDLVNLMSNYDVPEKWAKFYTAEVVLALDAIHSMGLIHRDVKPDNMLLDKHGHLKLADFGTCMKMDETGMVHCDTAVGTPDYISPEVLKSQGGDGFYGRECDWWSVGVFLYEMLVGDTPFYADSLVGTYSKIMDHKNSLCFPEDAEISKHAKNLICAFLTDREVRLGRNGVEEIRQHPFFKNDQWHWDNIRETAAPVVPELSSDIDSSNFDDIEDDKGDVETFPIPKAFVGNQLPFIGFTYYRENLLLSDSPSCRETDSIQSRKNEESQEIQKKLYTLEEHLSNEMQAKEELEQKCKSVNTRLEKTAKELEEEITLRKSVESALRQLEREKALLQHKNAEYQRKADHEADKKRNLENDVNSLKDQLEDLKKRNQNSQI

In general, IC50 refers to the concentration needed to halve the response being measured. In the case of `NC(CC(=O)NC1CCc2ccccc21)c1ccc(C(=O)Nc2ccncc2)cc1` (stereo not drawn) [Compound 228, 4-[1-Amino-2-(indan-1-ylcarbamoyl)-ethyl]-N-pyridin-4-yl-benzamide], the IC50 in assay [1] and in assay [2] was 0.05 to 0.5 µM each time.
As for `CC(NC(=O)CC(N)c1ccc(C(=O)Nc2ccncc2)cc1)c1cccc2ccccc12` (stereo not drawn) [Compound 229, 4-{1-Amino-2-(1-naphtalen-1-yl-ethylcarbamoyl)-ethyl]-N-pyridin-4-yl-benzamide], the IC50 was 0.05 to 0.5 µM in assay [1] and 0.5 to 5 µM in assay [2].
For `CC(NC(=O)CC(N)c1ccc(C(=O)Nc2ccncc2)cc1)c1cccc2ccccc12` (stereo not drawn) [Compound 230, 4-[1-Amino-2-(1-naphtalen-1-yl-ethylcarbamoyl)-ethyl]-N-pyridin-4-yl-benzamide] the same measures were 0.05 to 0.5 µM and 0.5 to 5 µM.
For `Cc1ccccc1CNC(=O)CC(N)c1ccc(C(=O)Nc2ccncc2)cc1` (stereo not drawn) [Compound 231, 4-[1-Amino-2-(2-methyl-benzylcarbamoyl)-ethyl]-N-pyridin-4-yl-benzamide] the same measures were 0.05 to 0.5 µM and 0.5 to 5 µM.
For `Cc1cccc(CNC(=O)CC(N)c2ccc(C(=O)Nc3ccncc3)cc2)c1` (stereo not drawn) [Compound 232, 4-[1-Amino-2-(3-methyl-benzylcarbamoyl)-ethyl]-N-pyridin-4-yl-benzamide] the same measures were 0.05 to 0.5 µM and 0.5 to 5 µM.
Regarding `Cc1ccc(CNC(=O)CC(N)c2ccc(C(=O)Nc3ccncc3)cc2)cc1` (stereo not drawn) [Compound 233, 4-[1-Amino-2-(4-methyl-benzylcarbamoyl)-ethyl]-N-pyridin-4-yl-benzamide], the figures for the IC50 in assay [1] and in assay [2] were 0.05 to 0.5 µM and 0.5 to 5 µM, respectively.
The like results for `Cc1ccc(C)c(CNC(=O)CC(N)c2ccc(C(=O)Nc3ccncc3)cc2)c1` (stereo not drawn) [Compound 234, 4-[1-Amino-2-(2,5-dimethyl-benzylcarbamoyl)-ethyl]-N-pyridin-4-yl-benzamide] were, in that order, 0.05 to 0.5 µM and 0.5 to 5 µM.
Consider `COc1cccc(CNC(=O)CC(N)c2ccc(C(=O)Nc3ccncc3)cc2)c1OC` (stereo not drawn) [Compound 238, 4-[1-Amino-2-(2,3-dimethoxy-benzylcarbamoyl)-ethyl]-N-pyridin-4-yl-benzamide], for which the IC50 in assay [1] was 0.05 to 0.5 µM; in assay [2], 5 to 50 µM.
The like results for `COc1ccc(CNC(=O)CC(N)c2ccc(C(=O)Nc3ccncc3)cc2)cc1` (stereo not drawn) [Compound 239, 4-[1-Amino-2-(4-methoxy-benzylcarbamoyl)-ethyl]-N-pyridin-4-yl-benzamide] were, in that order, 0.05 to 0.5 µM and 0.5 to 5 µM.
For `COc1ccc(CNC(=O)CC(N)c2ccc(C(=O)Nc3ccncc3)cc2)cc1OC` (stereo not drawn) [Compound 240, 4-[1-Amino-2-(3,4-dimethoxy-benzylcarbamoyl)-ethyl]-N-pyridin-4-yl-benzamide] the same measures were 0.05 to 0.5 µM and 5 to 50 µM.
For `COc1ccc(OC)c(CNC(=O)CC(N)c2ccc(C(=O)Nc3ccncc3)cc2)c1` (stereo not drawn) [Compound 242, 4-[1-Amino-2-(2,5-dimethoxy-benzylcarbamoyl)-ethyl]-N-pyridin-4-yl-benzamide] the same measures were 0.05 to 0.5 µM and 0.5 to 5 µM.
On to `COc1cccc(OC)c1CNC(=O)CC(N)c1ccc(C(=O)Nc2ccncc2)cc1` (stereo not drawn) [Compound 243, 4-[1-Amino-2-(2,6-dimethoxy-benzylcarbamoyl)-ethy]-N-pyridin-4-yl-benzamide], for which the IC50 was 0.05 to 0.5 µM in assay [1] and 0.5 to 5 µM in assay [2].
As to `COc1ccc(C(NC(=O)CC(N)c2ccc(C(=O)Nc3ccncc3)cc2)c2ccc(OC)cc2)cc1` (stereo not drawn) [Compound 244, 4-(1-Amino-2-{[bis-(4-methoxy-phenyl)-methyl]-carbamoyl}-ethyl)-N-pyridin-4-yl-benzamide], the IC50 was in the range of 0.05 to 0.5 µM in assay [1] and 0.5 to 5 µM in assay [2].
For `NC(CC(=O)NCc1ccccc1Cl)c1ccc(C(=O)Nc2ccncc2)cc1` (stereo not drawn) [Compound 246, 4-[1-Amino-2-(2-chloro-benzylcarbamoyl)-ethyl]-N-pyridin-4-yl-benzamide] the same measures were 0.05 to 0.5 µM and 0.5 to 5 µM.
For `Cc1cccc(Cl)c1CNC(=O)CC(N)c1ccc(C(=O)Nc2ccncc2)cc1` (stereo not drawn) [Compound 247, 4-[1-Amino-2-(2-chloro-6-methyl-benzylcarbamoyl)-ethyl]-N-pyridin-4-yl-benzamide], the IC50 in assay [1] lay within 0.05 to 0.5 µM; in assay [2], 0.5 to 5 µM.
For `NC(CC(=O)NCc1cccc(Cl)c1)c1ccc(C(=O)Nc2ccncc2)cc1` (stereo not drawn) [Compound 248, 4-[1-Amino-2-(3-chloro-benzylcarbamoyl)-ethyl]-N-pyridin-4-yl-benzamide] the same measures were 0.05 to 0.5 µM and 0.05 to 0.5 µM.
With `Cc1ccc(CNC(=O)CC(N)c2ccc(C(=O)Nc3ccncc3)cc2)cc1Cl` (stereo not drawn) [Compound 249, 4-[1-Amino-2-(3-chloro-4-methyl-benzylcarbamoyl)-ethyl]-N-pyridin-4-yl-benzamide], the IC50 lay within 0.05 to 0.5 µM in assay [1] and 0.5 to 5 µM in assay [2].
The like results for `NC(CC(=O)NCc1cc(Cl)cc(Cl)c1)c1ccc(C(=O)Nc2ccncc2)cc1` (stereo not drawn) [Compound 250, 4-[1-Amino-2-(3,5-dichloro-benzylcarbamoyl)-ethyl]-N-pyridin-4-yl-benzamide] were, in that order, 0.05 to 0.5 µM and 0.5 to 5 µM.
`NC(CC(=O)NCc1cc(Cl)ccc1Cl)c1ccc(C(=O)Nc2ccncc2)cc1` (stereo not drawn) [Compound 251, 4-[1-Amino-2-(3,6-dichloro-benzylcarbamoyl)-ethyl]-N-pyridin-4-yl-benzamide]: the IC50 lay in the range of 0.05 to 0.5 µM in assay [1] and 0.5 to 5 µM in assay [2].
For `NC(CC(=O)NCc1ccc(Cl)cc1Cl)c1ccc(C(=O)Nc2ccncc2)cc1` (stereo not drawn) [Compound 252, 4-[1-Amino-2-(2,4-dichloro-benzylcarbamoyl)-ethyl]-N-pyridin-4-yl-benzamide] the same measures were 0.05 to 0.5 µM and 0.5 to 5 µM.
The like results for `NC(CC(=O)NCc1cccc(Cl)c1Cl)c1ccc(C(=O)Nc2ccncc2)cc1` (stereo not drawn) [Compound 253, 4-[1-Amino-2-(2,3-dichloro-benzylcarbamoyl)-ethyl]-N-pyridin-4-yl-benzamide] were, in that order, 0.05 to 0.5 µM and 0.05 to 0.5 µM.
In the case of `NC(CC(=O)NC(c1ccccc1)c1ccc(Cl)cc1)c1ccc(C(=O)Nc2ccncc2)cc1` (stereo not drawn) [Compound 255, 4-(1-Amino-2-{[(4-chloro-phenyl)-phenyl-methyl]-carbamoyl}-ethyl)-N-pyridin-4-yl-benzamide], the IC50 was in the range of 0.05 to 0.5 µM in assay [1] and 0.5 to 5 µM in assay [2].
Consider `NC(CC(=O)NCc1ccccc1F)c1ccc(C(=O)Nc2ccncc2)cc1` (stereo not drawn) [Compound 256, 4-[1-Amino-2-(2-fluoro-benzylcarbamoyl)-ethyl]-N-pyridin-4-yl-benzamide], for which the IC50 fell in the range of 0.05 to 0.5 µM in assay [1] and 0.5 to 5 µM in assay [2].
The like results for `NC(CC(=O)NCc1cccc(F)c1)c1ccc(C(=O)Nc2ccncc2)cc1` (stereo not drawn) [Compound 257, 4-[1-Amino-2-(3-fluoro-benzylcarbamoyl)-ethyl]-N-pyridin-4-yl-benzamide] were, in that order, 0.05 to 0.5 µM and 0.5 to 5 µM.
Turning to `NC(CC(=O)NCc1ccc(F)cc1)c1ccc(C(=O)Nc2ccncc2)cc1` (stereo not drawn) [Compound 258, 4-[1-Amino-2-(4-fluoro-benzylcarbamoyl)-ethyl]-N-pyridin-4-yl-benzamide], the IC50 in assay [1] and in assay [2] was 0.05 to 0.5 µM each time.
Take `NC(CC(=O)NCc1ccccc1Br)c1ccc(C(=O)Nc2ccncc2)cc1` (stereo not drawn) [Compound 259, 4-[1-Amino-2-(2-bromo-benzylcarbamoyl)-ethyl]-N-pyridin-4-yl-benzamide]: the IC50 in assay [1] was in the range of 0.05 to 0.5 µM; in assay [2], 0.5 to 5 µM.
The like results for `NC(CC(=O)NCc1cccc(Br)c1)c1ccc(C(=O)Nc2ccncc2)cc1` (stereo not drawn) [Compound 260, 4-[1-Amino-2-(3-bromo-benzylcarbamoyl)-ethyl]-N-pyridin-4-yl-benzamide] were, in that order, 0.05 to 0.5 µM and 0.5 to 5 µM.
In the case of `NC(CC(=O)NCc1ccc(F)cc1Cl)c1ccc(C(=O)Nc2ccncc2)cc1` (stereo not drawn) [Compound 261, 4-[1-Amino-2-(2-chloro-4-fluoro-benzylcarbamoyl)-ethyl]-N-pyridin-4-yl-benzamide], the IC50 fell in the range of 0.05 to 0.5 µM in assay [1] and 0.5 to 5 µM in assay [2].
With `NC(CC(=O)NCc1ccc(Br)cc1F)c1ccc(C(=O)Nc2ccncc2)cc1` (stereo not drawn) [Compound 262, 4-[1-Amino-2-(4-bromo-2-fluoro-benzylcarbamoyl)-ethyl]-N-pyridin-4-yl-benzamide], the values for the IC50 in assay [1] and in assay [2] were 0.05 to 0.5 µM and 0.5 to 5 µM, respectively.
The like results for `NC(CC(=O)NCc1ccccc1C(F)(F)F)c1ccc(C(=O)Nc2ccncc2)cc1` (stereo not drawn) [Compound 263, 4-[1-Amino-2-(2-trifluoromethyl-benzylcarbamoyl)-ethyl]-N-pyridin-4-yl-benzamide] were, in that order, 0.05 to 0.5 µM and 0.5 to 5 µM.
